This is an account of results in patent US20230242538A1, “PanK Modulators and Methods Using Same” (YALE UNIVERSITY, priority 2020, published 2023).

In brackets after ≈: the same amount, converted by molar mass. Like-named read-outs stand apart in the source and are kept apart here.

The test system of experiment [1] is WT cells (Saccharomyces cerevisiae). In words: Liquid growth assay in minimal medium, WT yeast. In kind it is cell-based. From the text: (§1) Yeast strains (Saccharomyces cerevisiae) used in this study are JS91.15-23 (MATα his3 leu2 trp1 ura3) and JS91.14-24 (MATa ura3 his3 cab1ts) (Olzhausen, et al., 2009, Curr Genet 55, 163-173). Wild type and mutant strains were propagated either in YPD medium (2% bacto-peptone, 2% D-(+)-glucose and 1% yeast extract) or defined pantothenic acid-free (minimal) medium composed of Yeast Nitrogen Base (MP Biomedicals), supplemented with Complete Supplement Mixture (MP Biomedicals) and all vitamins except pantothenic acid. Where indicated, media were supplemented with appropriate concentrations of pantothenic acid.
(§2) Spotting assay were performed as follows. Pre-cultures of WT and cab1^ts yeast strains were prepared in YPD medium overnight at 30° C. Cells were harvested, washed, and diluted to 10^8 cells in 500 μL sterile water. Subsequent serial dilutions were made and 5 μL of cell suspensions were spotted on YPD agar plates lacking or supplemented with amorolfine 10 ng/mL, amphotericin B 1 μg/mL, fluconazole 10 μg/mL or terbinafine 10 μg/mL to achieve 10^6, 10^5, 10^4, 10^3, 10^2, and 10^1 cells per spot. Plates were incubated at 30° C. or 37° C. and imaged every 24 hours. For liquid assay in 96-well plate format, cells were pre-cultured overnight in liquid YPD medium at 30° C., washed three times in water and diluted to achieve 10^4 cells per well in 150 μL of minimal medium supplemented with 1 μM, 10 μM or 100 μM pantothenic acid and either lacking or supplemented with terbinafine (160 μg/ml). All plates were incubated at 30° C. Optical density measurements were taken with a BioTek SynergyMx microplate reader (OD630) every 8 hours for a total of 96 hours. Relative time to mid-log phase was calculated by first graphing growth curves of the varying concentrations of terbinafine for each concentration of pantothenic acid, and then determining the value at which the untreated curve reached saturation, and dividing it by 2 to represent the mid-log value. Dividing the time to mid-log phase of treated cells by the time to mid-log phase of untreated gave the relative time to mid-log phase.

For experiment [2], the system named is cab1^ts cells (Saccharomyces cerevisiae JS91.14-24). In words: Spotting assay on YPD agar, cab1ts yeast. It counts as cell-based. The note with it: 30° C., 48 hours; amorolfine 10 ng/mL, fluconazole 10 μg/mL, terbinafine 10 μg/mL, amphotericin B 1 μg/mL.
Description: as §1, §2

Experiment [3] deals with WT cells (Saccharomyces cerevisiae JS91.15-23). Put plainly: Spotting assay on YPD agar, WT yeast. It counts as cell-based. Conditions: 30° C., 48 hours; amorolfine 10 ng/mL, fluconazole 10 μg/mL, terbinafine 10 μg/mL, amphotericin B 1 μg/mL.
Description: as §1, §2

Experiment [4] has as its system cab1^ts cells (Saccharomyces cerevisiae). Put plainly: Liquid growth assay in minimal medium, cab1ts yeast. In kind it is cell-based. Conditions: for relative time to mid-log phase in the presence vs. absence of the drug: 160 μg/mL terbinafine.
Description: as §1, §2

Experiment [5] deals with WT cells (Saccharomyces cerevisiae). Put plainly: Drug-drug interaction with α-PanAm, checkerboard / isobologram. In kind it is cell-based. Conditions: n=2. How it is done: Clin. Microbiol. 43:140-143. The isobologram was produced by solving for the sum 50% fractional inhibitory concentration (ΣFIC50) using the equation: The data from the time-point where the 0 μg/mL terbinafine curve reached saturation was used to generate percent inhibition values, representing growth inhibition based on the concentration of terbinafine. This was done by dividing the value of interest by the untreated (0 μg/mL terbinafine) value, multiplying by 100 to get a percentage, and then subtracting that percentage from 100, representing 100% inhibition. The resulting values were used to create an inhibition curve, using the best fit function to generate an MIC50. […] The resulting MIC50 values were plugged into the ΣFIC50 equation, and the ΣFIC50 values were used to generate the curve.

A further experiment relates to yeast. The note with it: cited from earlier work.
The mark [6] stands for this setting: 100 μM PA, single agent: squalene 100 μg/mL or terbinafine 80 μg/mL.
[7] abbreviates: 1 μg/mL amphotericin B, 1 μM PA.

In the case of `CC(C)=CCC/C(C)=C/CC/C(C)=C/CC/C=C(\C)CC/C=C(\C)CCC=C(C)C` [squalene], the “mid-log phase reached at (time)” value in experiment [1] (setting [6]) amounted to 34 hours.

Regarding `C[C@@H]1[C@H](O)[C@@H](C)/C=C/C=C/C=C/C=C/C=C/C=C/C=C/[C@H](O[C@@H]2O[C@H](C)[C@@H](O)[C@H](N)[C@@H]2O)C[C@@H]2O[C@](O)(C[C@@H](O)C[C@@H](O)[C@H](O)CC[C@@H](O)C[C@@H](O)CC(=O)O[C@H]1C)C[C@H](O)[C@H]2C(=O)O` [amphotericin B], the “relative time to mid-log phase in the presence vs. absence of the drug” value in experiment [1] (setting [7]) came to 2.1. For the same compound, the “growth of WT cells in liquid medium” value in experiment [1] (1 μg/mL amphotericin B, 100 μM PA) is on record as “not significantly affected”. For the same compound, in experiment [2], the “growth of cab1^ts cells on YPD agar in the presence of the drug” value (from here on “growth of cab1^ts cells on YPD agar”) is on record as “reduced dramatically”. The “growth of WT cells on YPD agar in the presence of the drug” value (shortened to “growth of WT cells on YPD agar”) in experiment [3] was “only slightly inhibited”. In experiment [4] (setting [7]), the “growth of cab1^ts cells in liquid medium” value was “did not grow whatsoever”. Moreover, in experiment [5], the “drug-drug interaction pattern with α-PanAm (isobologram)” value is on record as “synergism”.

As usually defined, the MIC50 is the lowest concentration that inhibits either 50% of growth or 50% of the strains tested, depending on the study. Take `CC(CNC(=O)[C@H](O)C(C)(C)CO)C(=O)NCCc1ccccc1` (stereo partly drawn) [α-PanAm]: the MIC50 in the experiment with yeast (medium supplemented with 1 μM pantothenic acid) was about 7.6 mg/L (≈ 22.6 µM); with yeast (medium with 100 nM pantothenic acid), about 1.9 mg/L (≈ 5.65 µM).

On to `OC(Cn1cncn1)(Cn1cncn1)c1ccc(F)cc1F` [fluconazole], for which the “growth of cab1^ts cells on YPD agar” value in experiment [2] is listed as “not affected”. In addition, the “growth of WT cells on YPD agar” value in experiment [3] is “greatly reduced”.

Regarding `CCC(C)(C)c1ccc(CC(C)CN2C[C@@H](C)O[C@@H](C)C2)cc1` (stereo partly drawn) [amorolfine], the “growth of cab1^ts cells on YPD agar” value in experiment [2] is on record as “not affected”. In addition, the “growth of WT cells on YPD agar” value in experiment [3] was “completely blocked”.

With `CN(C/C=C/C#CC(C)(C)C)Cc1cccc2ccccc12` [terbinafine], the “mid-log phase reached at (time)” value is reported as 47 hours in experiment [1] (setting [6]) and 61 hours in experiment [1] (100 μM PA, terbinafine 80 μg/mL in the presence of 100 μg/mL squalene). The “relative time to mid-log phase in the presence vs. absence of the drug” value is 1.8 in experiment [1] (160 μg/mL terbinafine, 1 μM PA); 2.1 in experiment [1] (160 μg/mL terbinafine, 10 μM PA); 2.3 in experiment [1] (160 μg/mL terbinafine, 100 μM PA); 1.1 in experiment [4] (1 μM PA); 1.4 in experiment [4] (10 μM PA); 1.6 in experiment [4] (100 μM PA). The “growth of cab1^ts cells on YPD agar” value in experiment [2] is reported as “not affected”. In experiment [3], the “growth of WT cells on YPD agar” value is given as “greatly reduced”. Further, the “drug-drug interaction pattern with α-PanAm (isobologram)” value in experiment [5] is listed as “antagonism”.
